US12071404B2, “Aza (indole)-, benzothiophene-, and benzofuran-3-sulfonamides” (UCB Pharma GmbH, priority 2016, dated 2024)

Tests used:
GPR17 [1] = molecular target: T1, GPR17 (Homo sapiens, UniProt Q13304); experiment: Calcium mobilization functional assay (GPR17 Ca2+ assay); assay type: cell-based; parameters: host or cells: Flp-In T-REx CHO; conditions: CHO hGPR17 cells, inhibition of 50 nM MDL29,951, Calcium 5 dye, FLIPR; read-out: Ca2+ assay pIC50 (converted)
Method in brief: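 Flp-In T-REx CHO cells stably expressing human GPR17, doxycycline-induced (1 μg/mL, 16-20 h), loaded 60 min with Calcium 5 dye. Inhibition by varying test-compound concentrations of the 50 nM MDL29,951 agonist response was read by fluorescence over time at room temperature. pIC50 came from 4-parameter logistic fitting.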

GPR17 [2] = molecular target: T1, GPR17; experiment: cAMP accumulation functional assay (HTRF, Schild analysis); assay type: cell-based; parameters: host or cells: Flp-In T-REx CHO; conditions: CHO hGPR17 cells, Schild analysis vs MDL29,951, 5 μM forskolin, read-out: cAMP assay pA2 (converted)
Method in brief: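 CHO Flp-In T-REx cells with doxycycline-induced human GPR17 were preincubated 30 min at room temperature in HBSS-HEPES pH 7.4 with antagonist. cAMP was then measured by HTRF after 60 min. MDL29,951 pEC50 shifts gave dose ratios, and Schild analysis gave pA2.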

T1 sequence (Q13304 whole entry): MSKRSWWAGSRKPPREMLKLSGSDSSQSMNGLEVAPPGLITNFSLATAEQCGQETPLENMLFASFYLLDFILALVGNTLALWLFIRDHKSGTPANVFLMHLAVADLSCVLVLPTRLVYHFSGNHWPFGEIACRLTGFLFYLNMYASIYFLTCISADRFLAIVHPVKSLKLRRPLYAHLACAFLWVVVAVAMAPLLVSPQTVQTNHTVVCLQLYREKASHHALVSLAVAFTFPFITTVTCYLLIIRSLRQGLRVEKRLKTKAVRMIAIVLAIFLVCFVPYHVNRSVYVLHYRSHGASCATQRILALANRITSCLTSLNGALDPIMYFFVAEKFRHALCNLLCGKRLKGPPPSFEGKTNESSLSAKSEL

IC50 (GPR17 [1]) | Kb (GPR17 [2]) | SMILES
< 3.16 nM | 3.16 to 31.6 nM | O=S(=O)(Nc1ccc2nsnc2c1)c1c[nH]c2nc(Cl)ccc12 [Compound I-179, N-(2,1,3-benzothiadiazol-5-yl)-6-chloro-1H-pyrrolo[2,3-b]pyridine-3-sulfonamide]
> 31.6 nM | > 31.6 nM | COc1ccc2c(S(=O)(=O)Nc3ccc(Cl)cc3F)c[nH]c2c1 [Compound I-69, N-(4-chloro-2-fluorophenyl)-6-methoxy-1H-indole-3-sulfonamide]
< 3.16 nM | < 3.16 nM | COc1ccc2c(S(=O)(=O)Nc3cc(F)c(Br)cc3F)c[nH]c2c1 [Compound I-285, N-(4-bromo-2,5-difluorophenyl)-6-methoxy-1H-indole-3-sulfonamide]
> 31.6 nM | 3.16 to 31.6 nM | O=S(=O)(Nc1cc2c(cc1F)OC(F)(F)O2)c1c[nH]c2nc(Cl)ccc12 [Compound I-225, 6-chloro-N-(2,2,6-trifluoro-1,3-benzodioxol-5-yl)-1H-pyrrolo[2,3-b]pyridine-3-sulfonamide]
3.16 to 31.6 nM | 3.16 to 31.6 nM | N#Cc1ccc(NS(=O)(=O)c2c[nH]c3cc(-c4cccnc4)ccc23)c(F)c1 [Compound I-229, N-(4-cyano-2-fluorophenyl)-6-(pyridin-3-yl)-1H-indole-3-sulfonamide]
3.16 to 31.6 nM | 3.16 to 31.6 nM | COc1nc(NS(=O)(=O)c2c[nH]c3c(OC(F)F)c(Cl)ccc23)c(F)cc1F [Compound I-366, 6-chloro-7-(difluoromethoxy)-N-(3,5-difluoro-6-methoxypyridin-2-yl)-1H-indole-3-sulfonamide]
3.16 to 31.6 nM | 3.16 to 31.6 nM | O=S(=O)(Nc1ccc(I)cc1F)c1c[nH]c2nc(Cl)ccc12 [Compound I-94, 6-chloro-N-(2-fluoro-4-iodophenyl)-1H-pyrrolo[2,3-b]pyridine-3-sulfonamide]
> 31.6 nM | 3.16 to 31.6 nM | O=S(=O)(Nc1ccc(I)cc1F)c1c[nH]c2cc(F)ccc12 [Compound I-49, 6-fluoro-N-(2-fluoro-4-iodophenyl)-1H-indole-3-sulfonamide]
3.16 to 31.6 nM | 3.16 to 31.6 nM | O=S(=O)(Nc1nc(F)c(Cl)cc1F)c1c[nH]c2nc(Cl)ccc12 [Compound I-307, 6-chloro-N-(5-chloro-3,6-difluoropyridin-2-yl)-1H-pyrrolo[2,3-b]pyridine-3-sulfonamide]

The next lines start with the compound.

SMILES | IC50 (GPR17 [1]) | Kb (GPR17 [2])
O=S(=O)(Nc1cccc2nsnc12)c1c[nH]c2c1ccc1cccnc12 [Compound I-73, N-(2,1,3-benzothiadiazol-4-yl)-1H-pyrrolo[3,2-h]quinoline-3-sulfonamide] | 3.16 to 31.6 nM | < 3.16 nM
COc1nc(NS(=O)(=O)c2c[nH]c3c(OC)c(Cl)ccc23)c(F)cc1Cl [Compound I-309, 6-chloro-N-(5-chloro-3-fluoro-6-methoxypyridin-2-yl)-7-methoxy-1H-indole-3-sulfonamide] | < 3.16 nM | < 3.16 nM
CS(=O)(=O)c1ccc2c(S(=O)(=O)Nc3cc4c(cc3F)OC(F)(F)O4)c[nH]c2c1 [Compound I-238, 6-(methylsulfonyl)-N-(2,2,6-trifluoro-1,3-benzodioxol-5-yl)-1H-indole-3-sulfonamide] | 3.16 to 31.6 nM | 3.16 to 31.6 nM
COc1nc(NS(=O)(=O)c2coc3cc(Cl)ccc23)c(F)cc1Cl [Compound I-346, 6-chloro-N-(5-chloro-3-fluoro-6-methoxypyridin-2-yl)-1-benzofuran-3-sulfonamide] | 3.16 to 31.6 nM | 3.16 to 31.6 nM
N#CCOc1cc(F)c(NS(=O)(=O)c2csc3cc(Cl)ccc23)cc1F [Compound I-313, 6-chloro-N-[4-(cyanomethoxy)-2,5-difluorophenyl]-1-benzothiophene-3-sulfonamide] | 3.16 to 31.6 nM | 3.16 to 31.6 nM
CCOCCc1cc(F)c(NS(=O)(=O)c2c[nH]c3cc(Cl)ccc23)nc1F [Compound I-333, 6-chloro-N-[5-(2-ethoxyethyl)-3,6-difluoropyridin-2-yl]-1H-indole-3-sulfonamide] | < 3.16 nM | < 3.16 nM
